Consider 5 compounds from US20220347194A1, “METHODS AND COMPOSITIONS FOR TREATING PAIN AND OTHER EPH RECEPTOR-ASSOCIATED CONDITIONS” (THE BOARD OF REGENTS OF THE UNIVERSITY OF TEXAS SYSTEM, priority 2019, published 2022).

In general, IC50 refers to the midpoint of a concentration-inhibition curve. Low readings indicate inhibition by little substance, high ones a need for much substance.

One test deals with T1, EphB1 kinase domain (Homo sapiens, UniProt P54762).
T1 sequence (P54762 619-882 limits assumed): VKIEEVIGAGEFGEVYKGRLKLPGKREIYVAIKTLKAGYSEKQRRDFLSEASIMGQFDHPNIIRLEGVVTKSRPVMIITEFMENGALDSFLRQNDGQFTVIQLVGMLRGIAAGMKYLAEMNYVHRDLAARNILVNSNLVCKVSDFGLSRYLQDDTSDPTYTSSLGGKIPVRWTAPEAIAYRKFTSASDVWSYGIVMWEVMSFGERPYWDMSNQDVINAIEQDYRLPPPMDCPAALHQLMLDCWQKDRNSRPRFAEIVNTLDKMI
Put plainly: Radiometric protein kinase assay (33PanQinase Activity Assay), EphB1. To be noted: for inhibition of EphB1 kinase activity: concentrations up to 100 μM.

Another test concerns the target T2, EphB4 kinase domain (Homo sapiens, UniProt P54760).
T2 sequence (P54760 615-899 limits assumed): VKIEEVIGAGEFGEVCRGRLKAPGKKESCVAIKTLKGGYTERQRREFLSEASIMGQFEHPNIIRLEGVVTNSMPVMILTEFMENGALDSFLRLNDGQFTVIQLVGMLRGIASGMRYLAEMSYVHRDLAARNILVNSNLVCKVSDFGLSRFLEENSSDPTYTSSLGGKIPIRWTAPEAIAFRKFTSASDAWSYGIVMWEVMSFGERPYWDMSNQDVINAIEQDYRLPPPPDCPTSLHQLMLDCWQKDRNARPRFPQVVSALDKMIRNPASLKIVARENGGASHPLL
As to the kind of experiment: Radiometric protein kinase assay (33PanQinase Activity Assay), EphB4.

For another test, the target named is T3, EphB2 kinase domain (Homo sapiens, UniProt P29323).
T3 sequence (P29323 621-884 limits assumed): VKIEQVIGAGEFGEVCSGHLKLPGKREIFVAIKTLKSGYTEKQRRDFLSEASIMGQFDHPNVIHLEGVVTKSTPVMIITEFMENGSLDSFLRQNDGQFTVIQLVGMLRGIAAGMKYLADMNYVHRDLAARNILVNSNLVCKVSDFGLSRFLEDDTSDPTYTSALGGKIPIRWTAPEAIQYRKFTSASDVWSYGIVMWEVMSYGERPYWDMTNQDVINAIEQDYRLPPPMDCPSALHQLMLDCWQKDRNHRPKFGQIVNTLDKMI
Put plainly: Radiometric protein kinase assay (33PanQinase Activity Assay), EphB2.

The target in another test is T4, EphB3 kinase domain (Homo sapiens, UniProt P54753).
T4 sequence (P54753 633-896 limits assumed): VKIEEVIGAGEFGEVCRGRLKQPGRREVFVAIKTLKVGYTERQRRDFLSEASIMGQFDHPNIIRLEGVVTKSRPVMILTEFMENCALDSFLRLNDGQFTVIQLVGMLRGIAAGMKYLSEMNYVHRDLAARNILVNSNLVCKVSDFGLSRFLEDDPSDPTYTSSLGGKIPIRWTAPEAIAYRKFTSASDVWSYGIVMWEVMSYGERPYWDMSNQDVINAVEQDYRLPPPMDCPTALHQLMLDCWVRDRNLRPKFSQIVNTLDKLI
Put plainly: Radiometric protein kinase assay (33PanQinase Activity Assay), EphB3.

For test [1], the system named is Capsaicin Induced pain model. As to the kind of experiment: Capsaicin Induced pain model (Hargreaves and Von Frey tests). The class given is in vivo, CD1 mice. To be noted: capsaicin-injected paw vs controls; Demeclocycline 17 mg/kg/day, DC 7 mg/kg/day, MCD 5 mg/kg/day, p.o. How it is done: (§1) Animals. A total of 40 male outbred CD1 mice were obtained from Charles River Laboratories at 8 weeks of age. Mice were housed in the animal facility of UT southwestern Medical Center, with constant temperature (21-24° C.) and humidity (30-50%) with free access to standard animal feed and water. The room was kept on a 12/12 light/dark cycle, with white light (light cycle) on at 2400 hours and red lights (dark cycle) on at 1200 hours. All of the procedures were conducted with approval from the UT southwestern Medical Center Institutional Animal Care and Use Committee (IACUC Protocol No. 2017-102090). Ugo Basile® the original Plantar Test (Hargreaves Apparatus) was used for thermal stimulation, where infrared beam was adjusted to give an average paw withdrawal latency of about 10 s in wild type mice and cut-off time was set to 30 s to avoid tissue damage. Ugo Basile® Dynamic Plantar Aesthesiometer (DPA) for mechanical stimulation (Electronic Von Frey) were used for mechanical stimulation, where the force (grams) was set at 50 g to prevent tissue damage. Animals were placed in clear acrylic cubicles (22×16.5×14 cm) for at least one hour prior testing. The testing/recording was done every 5 minutes with no repetition for the same mouse. Blinded person(s) to the individual treatment assignments recorded true reflexes.
Capsaicin Induced pain model. […]

For test [2], the system named is Complete freund's adjuvant (CFA) Induced pain model. Put plainly: Complete freund's adjuvant (CFA) Induced pain model (Hargreaves and Von Frey tests). The class given is in vivo, CD1 mice. As for the experimental part: as §1
Complete freund's adjuvant (CFA) Induced pain model. […] A baseline was for detected for the mice behavior towards thermal hyperalgesia using Hargreaves Test and mechanical allodynia using Von Frey Test. The drugs were administered via gavage for three consecutive days before CFA injection. On the morning of the experiment (6 hours before CFA injection), the last dose of drugs was administered. CFA was injected in the right paw, while the left paw remained un-injected as control. The testing involved two stimulus thermal hyperalgesia using Hargreaves Test and mechanical allodynia using Von Frey Test at Days 1, 2, 3, and 5.

In test [3] the test system is Human glioblastoma (GBM) cells. As to the kind of experiment: Glioblastoma cell migration. The settings on record: 12.5, 25, 50, and 100 μM; after 24 hours. The class given is cell-based. As for the experimental part:
Cell migration was tested after 24 hours.

[4] abbreviates: tested at Days 1, 2, 3, and 5, P<0.001.

Experimental for EphB1 kinase domain: (§2) Kinase domains were produced by ProQinase using human cDNAs to express recombinant GST/His-fusion proteins that were purified by affinity chromatography and determined to be enzymatically active by phosphorylation of a Poly (Glu, Tyr) substrate. The FDA compounds were assayed in 10 concentrations in the range from 1×10^−4 M to 3×10^−9 M for their ability to effect kinase activities. The final DMSO concentration in the reaction cocktails was 1% in all cases. Kinase assays were performed in 96-well FlashPlates™ from PerkinElmer (Boston, Mass., USA) in a 50 μl reaction volume. The reaction cocktail was pipetted in four steps in the following order: 20 μl of assay buffer (standard buffer), 5 μl of ATP solution (in H2O), 5 μl of test compound (in 10% DMSO), and 20 μl enzyme/substrate mix. […] The reaction cocktails were incubated at 30° C. for 60 minutes. The reaction was stopped with 50 μl of 2% (v/v) H3PO4, plates were aspirated and washed two times with 200 μl 0.9% (w/v) NaCl. Incorporation of ^33Pi was determined with a microplate scintillation counter (Microbeta, Wallac). All assays were performed with a BeckmanCoulter/SAGIAN™ Core System. The median value of the counts in column 1 (n=8) of each assay plate was defined as “low control”. This value reflects unspecific binding of radioactivity to the plate in the absence of a protein kinase but in the presence of the substrate. The median value of the counts in column 7 of each assay plate (n=8) was taken as the “high control”, i.e. full activity in the absence of any inhibitor. The difference between high and low control was taken as 100% activity. As part of the data evaluation the low control value from a particular plate was subtracted from the high control value as well as from all 80 “compound values” of the corresponding plate. The residual activity (in %) for each well of a particular plate was calculated by using the following formula: Res. Activity (%)=100×[(cpm of compound−low control)/(high control−low control)]
(§3) The fitting method used was a least-squares fit.
For each kinase, the median value of the cpm of three wells with complete reaction cocktails, but without kinase, was defined as “low control” (n=3). This value reflects unspecific binding of radioactivity to the plate in the absence of protein kinase but in the presence of the substrate. Additionally, for each kinase the median value of the cpm of three other wells with the complete reaction cocktail, but without any compound, was taken as the “high control”, i.e. full activity in the absence of any inhibitor (n=3). The difference between high and low control was taken as 100% activity for each kinase. As part of the data evaluation the low control of each row of a particular plate was subtracted from the high control value as well as from their corresponding “compound values”. The residual activity (in %) for each well of each row of a particular plate was calculated by using the following formula: Res. Activity (%)=100×[(cpm of compound−low control)/(high control−low control)]. […] The mathematical model used was “Sigmoidal response (variable slope)” with parameters “top” fixed at 100% and “bottom” at 0%.
Experimental for EphB2 kinase domain: (§4) Kinase domains were produced by ProQinase using human cDNAs to express recombinant GST/His-fusion proteins that were purified by affinity chromatography and determined to be enzymatically active by phosphorylation of a Poly (Glu, Tyr) substrate. The FDA compounds were assayed in 10 concentrations in the range from 1×10^−4 M to 3×10^−9 M for their ability to effect kinase activities. The final DMSO concentration in the reaction cocktails was 1% in all cases. Kinase assays were performed in 96-well FlashPlates™ from PerkinElmer (Boston, Mass., USA) in a 50 μl reaction volume. The reaction cocktail was pipetted in four steps in the following order: 20 μl of assay buffer (standard buffer), 5 μl of ATP solution (in H2O), 5 μl of test compound (in 10% DMSO), and 20 μl enzyme/substrate mix. […] The reaction cocktails were incubated at 30° C. for 60 minutes. The reaction was stopped with 50 μl of 2% (v/v) H3PO4, plates were aspirated and washed two times with 200 μl 0.9% (w/v) NaCl. Incorporation of ^33Pi was determined with a microplate scintillation counter (Microbeta, Wallac). All assays were performed with a BeckmanCoulter/SAGIAN™ Core System. The median value of the counts in column 1 (n=8) of each assay plate was defined as “low control”. This value reflects unspecific binding of radioactivity to the plate in the absence of a protein kinase but in the presence of the substrate. […] The residual activity (in %) for each well of a particular plate was calculated by using the following formula: Res. Activity (%)=100×[(cpm of compound−low control)/(high control−low control)] […]
(§5) For each kinase, the median value of the cpm of three wells with complete reaction cocktails, but without kinase, was defined as “low control” (n=3). This value reflects unspecific binding of radioactivity to the plate in the absence of protein kinase but in the presence of the substrate. […] The residual activity (in %) for each well of each row of a particular plate was calculated by using the following formula: Res. Activity (%)=100×[(cpm of compound−low control)/(high control−low control)]. […]
Experimental for EphB3 kinase domain: as §2, §3
For each kinase, the median value of the cpm of three wells with complete reaction cocktails, but without kinase, was defined as “low control” (n=3). This value reflects unspecific binding of radioactivity to the plate in the absence of protein kinase but in the presence of the substrate. Additionally, for each kinase the median value of the cpm of three other wells with the complete reaction cocktail, but without any compound, was taken as the “high control”, i.e. full activity in the absence of any inhibitor (n=3). […] The residual activity (in %) for each well of each row of a particular plate was calculated by using the following formula: Res. Activity (%)=100×[(cpm of compound−low control)/(high control−low control)]. […]
Experimental for EphB4 kinase domain: as §4, §5

Take `NC(=O)C(c1ccccc1)(c1ccccc1)[C@@H]1CCN(CCc2ccc3c(c2)CCO3)C1` [darifenacin]: the “inhibition of EphB1 kinase activity” value on EphB1 kinase domain is recorded as “failed to inhibit”.
Consider `CN(C)c1ccc(O)c2c1C[C@H]1C[C@H]3[C@H](N(C)C)C(O)=C(C(N)=O)C(=O)[C@@]3(O)C(O)=C1C2=O` [minocycline], for which the 50% inhibitory concentration (IC50) is 37 to 92 µM at EphB4 kinase domain, 56 µM at EphB1 kinase domain, 37 to 92 µM against EphB2 kinase domain and 92 µM on EphB3 kinase domain.
Regarding `CCC(=O)NCC[C@@H]1CCc2ccc3c(c21)CCO3` [ramelteon], the “inhibition of EphB1 kinase activity” value at EphB1 kinase domain is “failed to inhibit”.
In the case of `CN(C)[C@@H]1C(O)=C(C(N)=O)C(=O)[C@@]2(O)C(O)=C3C(=O)c4c(O)ccc(Cl)c4[C@@H](O)[C@H]3C[C@@H]12` [Demeclocycline, demeclocycline], the IC50 against EphB4 kinase domain is 37 to 92 µM; on EphB1 kinase domain, 39 µM; at EphB2 kinase domain, 37 to 92 µM; at EphB3 kinase domain it was 47 µM. For the same compound, the “paw withdrawal latency, thermal stimulus (Hargreaves)” value in test [1] was “prolonged the paw withdrawal latency”; in test [2] (injected paw vs controls, p.o) it was “prolonged the paw withdrawal latency”. Besides, the “response to mechanical stimulus (von Frey)” value in test [1] is recorded as “same behavior was observed”; in test [2] (injected paw vs controls, p.o), “same behavior was observed”. Also, the “time until which significant improvement for mechanical (tactile) allodynia was shown” value in test [2] (setting [4]) worked out at 1 days. For the same compound, the “time until which significant improvement in paw withdrawal latency for thermal hyperalgesia was shown” value in test [2] (setting [4]) was not above 2 days. For the same compound, in test [3], the glioblastoma cell migration result is recorded as “inhibited glioblastoma cell migration”. The “influence on EphB3 catalytic activity” value at EphB3 kinase domain (low nanomolar ranges (biphasic)) was “slightly elevated activity”.
In the case of `CN(C)[C@@H]1C(O)=C(C(N)=O)C(=O)[C@@]2(O)C(O)=C3C(=O)c4c(O)ccc(Cl)c4[C@@](C)(O)[C@H]3C[C@@H]12` [chlortetracycline], the IC50 against EphB4 kinase domain is 37 to 92 µM; against EphB1 kinase domain, 44 µM; against EphB2 kinase domain, 37 to 92 µM; against EphB3 kinase domain, 55 µM.
